We go through 30 compounds from US9951025B2, “Halogenopyrazoles as inhibitors of thrombin” (VERSEON CORPORATION, priority 2013, dated 2018).

For one series, the target named is T1, Human thrombin (Homo sapiens, UniProt P00734).
T1 construct: purchased Haematologic Technologies Inc
The series can be described thus: thrombin protease inhibition assay, chromogenic substrate S-2238. The conditions noted are these: 3 nM human thrombin, 125 μM S-2238, 10 min pre-incubation, RT. It counts as biochemical. The protocol: Compounds described herein can be assayed, by a variety of methods known in the art and described herein, for inhibition of biological activity, e.g., protease activity, of a variety of proteins, e.g., thrombin.
The thrombin activity reported herein (e.g., Table A) was obtained as follows. […] Thrombin was assayed in buffer containing 0.05 M Tris (pH 7.4), 0.015 M NaCl and 0.01% PEG-8000. The final concentration of enzyme used was 3 nM thrombin. […] All assays were performed in 96-well microtiter plates at room temperature (RT). […] Inhibitor IC50 values were determined by adding test compound as ten point, three-fold serial dilutions in buffer solution, as known in the art. The plate was read at 10 minutes after substrate addition. The IC50 was calculated by plotting the percent (%) inhibition against compound concentration and fitting the data to a constrained four parameter sigmoidal curve, as known in the art.

For series [1] the following is noted: after 7 weeks of administration; cited from earlier work.
The test system of another series is glioma. Particulars: systemic use, rat glioma models; cited from earlier work.
For another series, the system named is malignant breast tumors. The conditions noted are these: cited from earlier work.
The subject of a further series is lung fibroblasts. The conditions noted are these: mouse, in vivo; cited from earlier work.
The conditions of series [2]: cited from earlier work.
The subject of series [3] is prostate cancer cell line PC-3. Particulars: PC-3, concentration dependent manner; cited from earlier work.
The test system of the next series is tumor. Particulars: cited from earlier work.

Non-standard residues stand in square brackets, D forms with d. No end group written: not given here. Oic = O=C(O)[C@@H]1C[C@@H]2CCCC[C@@H]2N1; Phe(4-Me) = Cc1ccc(C[C@H](N)C(=O)O)cc1

For `O=C(c1cccc2c1OCCO2)n1nc(NCc2ccc(Cl)s2)c(F)c1C1CCOCC1` [Compound 35, N-[(5-chlorothiophen-2-yl)methyl]-1-(2,3-dihydro-1,4-benzodioxine-5-carbonyl)-4-fluoro-5-(oxan-4-yl)-1H-pyrazol-3-amine], on Human thrombin, the IC50 – broadly, the point on the concentration scale where inhibition reaches its midpoint – was over 1000 nM.

In the case of `COc1ccc(C(=O)n2nc(C3CCOCC3)c(F)c2NCc2ccc(Cl)s2)c(OC)c1` [Compound 36, N-[(5-chlorothiophen-2-yl)methyl]-1-(2,4-dimethoxybenzoyl)-4-fluoro-3-(oxan-4-yl)-1H-pyrazol-5-amine], the IC50 against Human thrombin was under 100 nM.

As to `COc1ccc(C(=O)n2nc(C3CCNCC3)c(F)c2NCc2ccc(Cl)s2)c(OC)c1` [Compound 37, N-[(5-chlorothiophen-2-yl)methyl]-1-(2,4-dimethoxybenzoyl)-4-fluoro-3-(piperidin-4-yl)-1H-pyrazol-5-amine], on Human thrombin, the IC50 was under 100 nM.

Regarding `COc1ccc(C(=O)n2nc(-c3ccccc3)c(F)c2NCc2ccc(Cl)s2)c(OC)c1` [Compound 38, N-[(5-chlorothiophen-2-yl)methyl]-1-(2,4-dimethoxybenzoyl)-4-fluoro-3-phenyl-1H-pyrazol-5-amine], the IC50 against Human thrombin was under 100 nM.

On Human thrombin, `COc1ccc(C(=O)n2nc(NCc3ccc(Cl)s3)c(F)c2C2CCOCC2)c(OC)c1` [Compound 39, N-[(5-chlorothiophen-2-yl)methyl]-1-(2,4-dimethoxybenzoyl)-4-fluoro-5-(oxan-4-yl)-1H-pyrazol-3-amine] displayed an IC50 of over 1000 nM.

Consider `COc1ccccc1C(=O)n1nc(C2CCN(S(=O)(=O)c3cccc4c(N(C)C)cccc34)CC2)c(F)c1NCc1ccc(Cl)s1` [Compound 40, N-[(5-chlorothiophen-2-yl)methyl]-3-(1-[5-(dimethylamino)naphthalen-1-yl]sulfonylpiperidin-4-yl)-4-fluoro-1-(2-methoxybenzoyl)-1H-pyrazol-5-amine], for which the IC50 against Human thrombin was over 1000 nM.

Take `COc1ccccc1C(=O)n1nc(-c2ccccn2)c(F)c1NCc1ccc(Cl)s1` [Compound 43, N-[(5-chlorothiophen-2-yl)methyl]-4-fluoro-1-(2-methoxybenzoyl)-3-(pyridin-2-yl)-1H-pyrazol-5-amine]: the IC50 against Human thrombin was under 100 nM.

Compound `COc1ccccc1C(=O)n1nc(-c2ccccc2)c(F)c1NCc1ccc(Cl)s1` [Compound 44, N-[(5-chlorothiophen-2-yl)methyl]-4-fluoro-1-(2-methoxybenzoyl)-3-phenyl-1H-pyrazol-5-amine] came in with an IC50 against Human thrombin of under 100 nM.

As to `COc1ccccc1C(=O)n1nc(NCc2ccc(Cl)s2)c(F)c1C1CCOCC1` [Compound 45, N-[(5-chlorothiophen-2-yl)methyl]-4-fluoro-1-(2-methoxybenzoyl)-5-(oxan-4-yl)-1H-pyrazol-3-amine], the IC50 at Human thrombin is over 1000 nM.

With `CC1(C(=O)n2nc(-c3ccccc3)c(F)c2NCc2ccc(Cl)s2)COC1` [Compound 46, N-[(5-chlorothiophen-2-yl)methyl]-4-fluoro-1-(3-methyloxetane-3-carbonyl)-3-phenyl-1H-pyrazol-5-amine], at Human thrombin, the IC50 was over 1000 nM.

In the case of `CC1(C(=O)n2nc(-c3ccccc3)c(F)c2NCc2ccc(Cl)s2)CCOCC1` [Compound 48, N-[(5-chlorothiophen-2-yl)methyl]-4-fluoro-1-(4-methyloxane-4-carbonyl)-3-phenyl-1H-pyrazol-5-amine], the IC50 against Human thrombin is under 100 nM.

`O=C(c1ccoc1)n1nc(C2CCOCC2)c(F)c1NCc1ccc(Cl)s1` [Compound 49, N-[(5-chlorothiophen-2-yl)methyl]-4-fluoro-1-(furan-3-carbonyl)-3-(oxan-4-yl)-1H-pyrazol-5-amine]: the concentration for half-maximal inhibition (IC50) against Human thrombin is under 100 nM.

As to `O=C(c1ccoc1)n1nc(C2CCNCC2)c(F)c1NCc1ccc(Cl)s1` [Compound 50, N-[(5-chlorothiophen-2-yl)methyl]-4-fluoro-1-(furan-3-carbonyl)-3-(piperidin-4-yl)-1H-pyrazol-5-amine], at Human thrombin, the IC50 was under 100 nM.

Turning to `O=C(c1ccoc1)n1nc(-c2ccccc2)c(F)c1NCc1ccc(Cl)s1` [Compound 51, N-[(5-chlorothiophen-2-yl)methyl]-4-fluoro-1-(furan-3-carbonyl)-3-phenyl-1H-pyrazol-5-amine], the IC50 against Human thrombin is under 100 nM.

In turn, `COCCOc1ccc(C(=O)n2nc(C3CCOCC3)c(F)c2NCc2ccc(Cl)s2)cc1` [Compound 52, N-[(5-chlorothiophen-2-yl)methyl]-4-fluoro-1-[4-(2-methoxyethoxy)benzoyl]-3-(oxan-4-yl)-1H-pyrazol-5-amine] showed an IC50 at Human thrombin of under 100 nM.

In turn, `O=C(c1ccc(N2CCOCC2)cc1)n1nc(C2CCOCC2)c(F)c1NCc1ccc(Cl)s1` [Compound 53, N-[(5-chlorothiophen-2-yl)methyl]-4-fluoro-1-[4-(morpholin-4-yl)benzoyl]-3-(oxan-4-yl)-1H-pyrazol-5-amine] gave an IC50 against Human thrombin of under 100 nM.

`O=C(c1ccsc1)n1nc(C2CCOCC2)c(F)c1NCc1ccc(Cl)s1` [Compound 54, N-[(5-chlorothiophen-2-yl)methyl]-4-fluoro-3-(oxan-4-yl)-1-(thiophene-3-carbonyl)-1H-pyrazol-5-amine] had an IC50 against Human thrombin of under 100 nM.

At Human thrombin, `COc1ccccc1C(=O)n1nc(NCc2ccc(Cl)s2)c(F)c1C1CCN(S(=O)(=O)c2cccc3c(N(C)C)cccc23)CC1` [Compound 55, N-[(5-chlorothiophen-2-yl)methyl]-5-(1-[5-(dimethylamino)naphthalen-1-yl]sulfonylpiperidin-4-yl)-4-fluoro-1-(2-methoxybenzoyl)-1H-pyrazol-3-amine] yielded an IC50 of over 1000 nM.

For the compound `COc1ccccc1C(=O)N(Cc1ccc(Cl)s1)c1[nH]nc(-c2ccc3c(c2)CCCC3=O)c1F` [Compound 56, N-[(5-chlorothiophen-2-yl)methyl]-N-[4-fluoro-3-(5-oxo-5,6,7,8-tetrahydronaphthalen-2-yl)-1H-pyrazol-5-yl]-2-methoxybenzamide], the IC50 against Human thrombin is over 1000 nM.

Compound `CN(C)c1cccc2c(S(=O)(=O)Nc3ccc(C(=O)n4nc(C5CCNCC5)c(F)c4NCc4ccc(Cl)s4)cc3)cccc12` [Compound 57, N-[4-(5-[(5-chlorothiophen-2-yl)methyl]amino-4-fluoro-3-(piperidin-4-yl)-1H-pyrazole-1-carbonyl)phenyl]-5-(dimethylamino)naphthalene-1-sulfonamide] returned an IC50 against Human thrombin of under 100 nM.

In turn, `CN(C)c1cccc2c(S(=O)(=O)Nc3ccc(C(=O)n4nc(-c5ccccc5)c(F)c4NCc4ccc(Cl)s4)cc3)cccc12` [Compound 58, N-[4-(5-[(5-chlorothiophen-2-yl)methyl]amino-4-fluoro-3-phenyl-1H-pyrazole-1-carbonyl)phenyl]-5-(dimethylamino)naphthalene-1-sulfonamide] came in with an IC50 at Human thrombin of under 100 nM.

`COc1ccccc1C(=O)n1nc(-c2ccccn2)c(F)c1NCc1ccccc1` [Compound 59, N-benzyl-4-fluoro-1-(2-methoxybenzoyl)-3-(pyridin-2-yl)-1H-pyrazol-5-amine] gave an IC50 against Human thrombin of under 100 nM.

For the compound `COc1ccccc1C(=O)n1nc(-c2ccccc2)c(F)c1NCc1ccccc1` [Compound 60, N-benzyl-4-fluoro-1-(2-methoxybenzoyl)-3-phenyl-1H-pyrazol-5-amine], on Human thrombin, the IC50 was under 100 nM.

`O=C(n1nc(C2CCOCC2)c(F)c1NCc1ccc(Cl)s1)C1(CO)CC1` [Compound 61, [1-(5-[(5-chlorothiophen-2-yl)methyl]amino-4-fluoro-3-(oxan-4-yl)-1H-pyrazole-1-carbonyl)cyclopropyl]methanol]: on Human thrombin, the half-maximal inhibitory concentration (IC50) is under 100 nM.

On to `O=C(n1nc(-c2ccccc2)c(F)c1NCc1ccc(Cl)s1)C1(CO)CC1` [Compound 62, [1-(5-[(5-chlorothiophen-2-yl)methyl]amino-4-fluoro-3-phenyl-1H-pyrazole-1-carbonyl)cyclopropyl]methanol], for which the IC50 against Human thrombin was under 100 nM.

Turning to `CC(=O)Nc1c(-c2ccccc2)cccc1S(=O)(=O)N[C@@H](CCCc1ccc(N)cn1)C(=O)N1CCC(=C(F)F)CC1` [SSR182289], in series [1], the liver fibrogenesis result is “decreased liver fibrogenesis significantly”.

For `CC1CNc2c(cccc2S(=O)(=O)N[C@@H](CCCNC(=N)N)C(=O)N2CC[C@@H](C)C[C@@H]2C(=O)O)C1` (stereo partly shown) [argatroban], in the series on glioma, the survival time entry is listed as “prolonged” and the tumor mass result is “reduced”.

Consider `CCCCCCOC(=O)NC(=N)c1ccc(NCc2nc3cc(C(=O)N(CCC(=O)OCC)c4ccccn4)ccc3n2C)cc1` [dabigatran etexilate], for which, in the series on malignant breast tumors (mouse, in vivo), the “invasion and metastasis of malignant breast tumors” value is recorded as “inhibited”; the “reduction of tumor cells in the blood and liver micrometastases” value is 50-60%. Further, the weight loss entry in the series with malignant breast tumors (treated mice, 4 weeks) was “no weight loss”. Moreover, the “profibrotic events in lung fibroblasts, including production of collagen and connective tissue growth factor” value in the series on lung fibroblasts is given as “reduced”.

As for `N=C(N)c1ccc(CNC(=O)[C@@H]2CCN2C(=O)[C@H](NCC(=O)O)C2CCCCC2)cc1` [melagatran], the kidney graft survival result in series [2] (at 3 months) is “drastically improved”. Besides, in series [2] (kidney transplant model), the ischemia reperfusion injury result is “greatly reduced”.

[dR][Oic]P[dA][Phe(4-Me)]: the thrombin-stimulated invasion entry in series [3] is given as “block”. Also, the overall tumor weight entry with tumor (compared to untreated mice) is recorded as “reduced”. Besides, the “rate of tumor growth” value in the series on tumor (mice dosed through drinking water) was “reduced”.
